Results on six compounds are retold here after PMC10107299, “Neutralizing the Impact of the Virulence Factor LecA from Pseudomonas aeruginosa on Human Cells with New Glycomimetic Inhibitors” (Angewandte Chemie (International Ed. in English), 2023).

One series can be described thus: in vitro. The format is in vitro ADME. The settings on record: pH 7.4, 37 °C. The procedure: Then, we analyzed the stability of the compounds in plasma. […] The observed increase in plasma stability of the tested amide derivatives compared to bisacylhydrazone 14 supports our design hypothesis for the isosteric replacement of the bisacylhydrazone linking motif. […]
Each compound dissolved in DMSO was added to mouse plasma (pH 7.4, 37 °C) or to human plasma (pH 7.4, 37 °C) to yield a final concentration of 1 µM. In addition, procaine and procainamide (dissolved in DMSO) were added to mouse plasma or to human plasma (pH 7.4, 37 °C) to yield a final concentration of 1 µM. Procaine served as positive control as it is unstable in mouse plasma. Procainamide served as negative control as it is stable in mouse plasma. The samples were incubated for 0 min, 15 min, 30 min, 60 min, 90 min, 120 min and 240 min at 37 °C. At each time point, 10 µl of the respective sample was extracted with 90 µL acetonitrile containing 12.5 ng/mL caffeine as internal standard for 5 min at 2000 rpm on a MixMate vortex […]
mixer (Eppendorf). Acetonitrile and caffeine were dispensed using a Mantis Formulatrix. Then samples were centrifuged for 20 min at 2.270 x g at 4 °C and the supernatants were transferred to 96-well Greiner V-bottom plates. Peak areas of each compound and of the internal standard were analyzed using the MultiQuant 3.0 software (AB Sciex). Peak areas of the respective compound were normalized to the internal standard peak area and to the respective peak areas at time point 0 min: (C/D)/(A/B) with A: peak area of the compound at time point 0 min, B: peak area of the internal standard at time point 0 min, C: peak area of the compound at the respective time point, D: peak area of the internal standard at the respective time point. […]
2 hours at 800 rpm on an Eppendorf MixMate vortex-mixer. Then samples were withdrawn from the respective chambers. To 25 µL of each dialysis sample, 25 µL of plasma and to 25 µL of plasma sample, 25 µL of dialysis buffer was added. Then 150 µL ice-cold extraction solvent (ACN/H2O (90:10) containing 12.5 ng/mL caffeine as internal standard) was added. Samples were incubated for 30 min on ice. Then samples were centrifuged at 4 °C at 2270 x g for 10 min.

For the next series, the system named is LecA-treated H1299 cells. As to the kind of experiment: Scratch-wound healing assay. The format is cell-based, human. The settings on record: 3.9 μM LecA; for Wound closure after 24 h: 100 μM inhibitor. An excerpt:
The opportunistic bacterium P. aeruginosa depends on favorable circumstances to infect the host, such as a suppressed immunity or wounded skin.[34, 35] Chronic infection of wounds with P. aeruginosa increases the risk of nosocomial spread, are difficult to treat and after systemic dissemination can result in a fatal outcome in patients. In a previous study, we investigated the effect of the fucose‐binding P. aeruginosa lectin LecB on epithelial wound healing.[36] […] Here, we investigated whether LecA also impairs the same physiological process. To this end, H1299 cell monolayers were grown, and after scratching with a pipette tip, wound closure was monitored microscopically (Figure 5a). […] The mode of action of LecA in the wound healing process remains elusive. […] Importantly, when LecA was added to the cells together with L2 (10 μM and 100 μM, respectively), the wound healed at a similar rate to the control in absence of LecA. Remarkably, in presence of 10 μM L2, cell migration was restored to about 70 % compared to the negative control, and the wound closed by 80 % after 24 h of incubation with 100 μM L2 (Figure 5b). […]
using NIS-Element Confocal 4.20 from Nikon and ImageJ 1.52a from Laboratory for Optical and Computational Instrumentation.
Cell proliferation (MTT) assay […]
Subsequently, 10 μL of MTT labelling solution was added to each well and the cells were incubated for another 4 h at 37 °C. […] The next day, the absorbance of the samples was measured at 550 nm using a BioTek microplate reader (BioTek Instruments Inc., Winooski, VT, USA). The data were analyzed using Microsoft Excel and GraphPad Prism […]
2 x 10^5 cells were seeded on 12-well plates and formed a confluent monolayer after 24 h. […] The samples were imaged with an EVOS microscope (PEQLAB by VWR Life Sciences, Avantor Performance Materials Inc., Center Valley, PA, USA) and analyzed with ImageJ and Microsoft Excel. […] Experiment was repeated independently three times (N = 3) and evaluated with two tailed, […]

[1] abbreviates: human plasma, read-out: Plasma stability t1/2 Human.
[2] abbreviates: mouse plasma, read-out: Plasma stability t1/2 Mouse.

Where two headings read alike, the source gives them in different places.

With `O=C(/C=C/c1ccc(O[C@@H]2O[C@H](CO)[C@H](O)[C@H](O)[C@H]2O)cc1)Nc1ccc(OCCOc2ccc(NC(=O)/C=C/c3ccc(O[C@@H]4O[C@H](CO)[C@H](O)[C@H](O)[C@H]4O)cc3)cc2)cc1` [Compound D1], the values for the half-life at 1 µM in the series “in vitro” (setting [1]) and in the series “in vitro” (setting [2]) were 224 min and 180 min, respectively.

Take `O=C(CCc1ccc(O[C@@H]2O[C@H](CO)[C@H](O)[C@H](O)[C@H]2O)cc1)Nc1ccc(OCCOc2ccc(NC(=O)CCc3ccc(O[C@@H]4O[C@H](CO)[C@H](O)[C@H](O)[C@H]4O)cc3)cc2)cc1` [Compound D2]: the figures for the half-life at 1 µM in the series “in vitro” (setting [1]) and in the series “in vitro” (setting [2]) were 132 min and 183 min, respectively.

In the case of `O=C(/C=C/c1ccc(O[C@@H]2O[C@H](CO)[C@H](O)[C@H](O)[C@H]2O)cc1)Nc1ccc(OCCOc2ccc(NC(=O)/C=C/c3ccc(O[C@@H]4O[C@H](CO)[C@H](O)[C@H](O)[C@H]4O)cc3)cn2)nc1` [Compound H1], the half-life at 1 µM in “in vitro” (setting [1]) was more than 240 min; in “in vitro” (setting [2]), more than 180 min.

Take `O=C(CCc1ccc(O[C@@H]2O[C@H](CO)[C@H](O)[C@H](O)[C@H]2O)cc1)Nc1ccc(OCCOc2ccc(NC(=O)CCc3ccc(O[C@@H]4O[C@H](CO)[C@H](O)[C@H](O)[C@H]4O)cc3)cn2)nc1` [Compound H2]: the figures for the half-life at 1 µM in “in vitro” (setting [1]) and in “in vitro” (setting [2]) were 215 min and 81.1 min, respectively.

With `Cc1ccc(NC(=O)CCc2ccc(O[C@@H]3O[C@H](CO)[C@H](O)[C@H](O)[C@H]3O)cc2)cc1S(=O)(=O)O` [Compound K2], in the series on LecA-treated H1299 cells, the “Wound closure after 24 h” value was “about 50%”.

With `O=C(CCc1ccc(O[C@@H]2O[C@H](CO)[C@H](O)[C@H](O)[C@H]2O)cc1)Nc1ccc(CCc2ccc(NC(=O)CCc3ccc(O[C@@H]4O[C@H](CO)[C@H](O)[C@H](O)[C@H]4O)cc3)cc2S(=O)(=O)O)c(S(=O)(=O)O)c1` [Compound L2], the half-life at 1 µM in “in vitro” (setting [1]) and in “in vitro” (setting [2]) was more than 240 min throughout. Besides, the “Cell migration / wound closure restored after 24 h” value with LecA-treated H1299 cells (10 μM inhibitor) is recorded as “about 70%”. In the series with LecA-treated H1299 cells, the “Wound closure after 24 h” value came to 80%.
